Source: patent US6881741B2 (ViroChem Pharma Inc., priority 2001, dated 2005)

Each compound was assayed against recombinant HCV NS5B (HCV RNA-dependent RNA polymerase) (Hepatitis C virus genotype 1b, UniProt P26663) (assay: biochemical). Settings: HCV polymerase activity, list of compounds of Example 27; read-out: IC50 (polymerase activity).
Sequence of recombinant HCV NS5B (HCV RNA-dependent RNA polymerase) (P26663 2420-3010 limits assumed): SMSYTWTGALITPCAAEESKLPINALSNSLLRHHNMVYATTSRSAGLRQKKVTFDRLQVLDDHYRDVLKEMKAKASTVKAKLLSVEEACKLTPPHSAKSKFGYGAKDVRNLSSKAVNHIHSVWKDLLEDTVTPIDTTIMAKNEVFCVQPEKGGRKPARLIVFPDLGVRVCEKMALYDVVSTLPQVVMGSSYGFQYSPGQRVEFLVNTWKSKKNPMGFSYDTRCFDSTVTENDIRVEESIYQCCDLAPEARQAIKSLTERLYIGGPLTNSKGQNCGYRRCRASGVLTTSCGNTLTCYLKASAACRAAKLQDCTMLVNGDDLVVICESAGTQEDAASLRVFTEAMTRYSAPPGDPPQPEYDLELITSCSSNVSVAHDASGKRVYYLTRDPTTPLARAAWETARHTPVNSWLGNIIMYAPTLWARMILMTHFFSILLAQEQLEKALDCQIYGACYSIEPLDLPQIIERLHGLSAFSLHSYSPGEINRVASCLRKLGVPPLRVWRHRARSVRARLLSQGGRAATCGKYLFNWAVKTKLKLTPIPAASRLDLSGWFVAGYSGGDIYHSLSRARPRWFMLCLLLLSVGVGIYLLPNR

SMILES | IC50 [µM]
O=C(O)c1sc(-c2ccccc2)cc1N(Cc1ccccc1Cl)C(=O)C1CCCCC1 [Compound 444, 3-[(2-CHLORO-BENZYL)- CYCLOHEXANECARBONYL-AMINO]-5- PHENYL-THIOPHENE-2-CARBOXYLIC ACID] | < 5
Cc1ccc(C(=O)N(c2cc(-c3cccc(C(F)(F)F)c3)sc2C(=O)O)C(C)C)c(O)c1 [Compound 428, 3-[(2-HYDROXY-4-METHYL-BENZOYL)- ISOPROPYL-AMINO]-5-(3- TRIFLUOROMETHYL-PHENYL)- THIOPHENE-2-CARBOXYLIC ACID] | 5 to 20
CC1CCC(C(=O)N(c2cc(-c3ccccc3)sc2C(=O)O)C(C)C)C1 (stereo not shown) [Compound 408, 3-[ISOPROPYL-(3-METHYL- CYCLOPENTANECARBONYL)-AMINO]-5- PHENYL-THIOPHENE-2-CARBOXYLIC ACID] | 5 to 20
O=C(O)c1sc(-c2ccccc2)cc1N(Cc1ccccc1)C(=O)CC1CCCC1 [Compound 487, 3-[BENZYL-(2-CYCLOPENTYL-ACETYL)- AMINO]-5-PHENYL-THIOPHENE-2- CARBOXYLIC ACID] | < 5
O=C(O)c1sc(-c2ccccc2)cc1N(C(=O)c1ccc(Cl)cc1Cl)C(CO)CO [Compound 518, 3-[(2,4-DICHLORO-BENZOYL)-(2- HYDROXY-1-HYDROXYMETHYL-ETHYL)- AMINO]-5-PHENYL-THIOPHENE-2- CARBOXYLIC ACID] | < 5
Cc1ccc(S(=O)(=O)Nc2cc(-c3ccc(F)cc3)sc2C(N)=O)cc1 [Compound 564, 5-(4-FLUORO-PHENYL)-3-(TOLUENE-4- SULFONYLAMINO)-THIOPHENE-2- CARBOXYLIC ACID AMIDE] | 5 to 20
CC(C)N(C(=O)[C@@H]1CC[C@@H](C)C[C@@H]1O)c1cc(-c2ccccc2)sc1C(=O)O [Compound 540, 3-[((1R,2S,4R)-2-HYDROXY-4-METHYL- CYCLOHEXANECARBONYL)-ISOPROPYL- AMINO]-5-PHENYL-THIOPHENE-2- CARBOXYLIC ACID] | < 5
CCN(CC)c1ncc(CN(C(=O)c2ccc(Cl)cc2Cl)c2cc(-c3ccccc3)sc2C(=O)O)s1 [Compound 557, 3-[(2,4-DICHLORO-BENZOYL)-(2- DIETHYLAMINO-THIAZOL-5-YLMETHYL)- AMINO]-5-PHENYL-THIOPHENE-2- CARBOXYLIC ACID] | < 5
CC[NH+](CC)c1ncc(CN(C(=O)c2ccc(Cl)cc2Cl)c2cc(-c3ccccc3)sc2C(=O)O)s1 [Compound 558, (5-{[[2-CARBOXY-5-PHENYL-THIOPHEN-3- YL)-(2,4-DICHLORO-BENZOYL)-AMINO]- METHYL}-THIAZOL-2-YL)-DIETHYL- AMMONIUM; CHLORIDE] | < 5

Same assay, conditions: related polymerase activity (Example 27 list); read-out: IC50

SMILES | IC50 [µM]
COc1ccc(S(=O)(=O)Nc2cc(-c3ccccc3)sc2C(=O)O)c([N+](=O)[O-])c1 [Compound 152, 3-(4-METHOXY-2-NITRO-BENZENESULFONYLAMINO)-5-PHENYL-THIOPHENE-2-CARBOXYLIC ACID] | 5 to 20
Cc1ccccc1S(=O)(=O)Nc1cc(-c2ccc(CO)cc2)sc1C(=O)O [Compound 125, 5-(4-HYDROXYMETHYL-PHENYL)-3-(TOLUENE-2-SULFONYLAMINO)-THIOPHENE-2-CARBOXYLIC ACID] | < 5
Cc1ccccc1S(=O)(=O)Nc1cc(-c2ccc3[nH]ccc3c2)sc1C(=O)O [Compound 260, 5-(1H-INDOL-5-YL)-3-(TOLUENE-2-SULFONYLAMINO)-THIOPHENE-2-CARBOXYLIC ACID] | 5 to 20
C=C(C)Cc1cc(N(C(=O)c2ccc(Cl)cc2Cl)C(C)C)c(C(=O)O)s1 [Compound 338, 3-[(2,4-DICHLORO-BENZOYL)- ISOPROPYL-AMINO]-5-(2-METHYL- ALLYL)-THIOPHENE- 2-CARBOXYLIC ACID] | < 5
Cc1ccc(C(=O)N(C)c2cc(-c3ccc(F)cc3F)sc2C(=O)O)cc1 [Compound 214, 5-(2,4-DIFLUORO-PHENYL)-3-[METHYL-(4-METHYL-BENZOYL)-AMINO]-THIOPHENE-2-CARBOXYLIC ACID] | 5 to 20
CC(C)CN(C(=O)c1ccc(Cl)cc1Cl)c1cc(-c2ccccc2)sc1C(=O)O [Compound 204, 3-[(2,4-DICHLORO-BENZOYL)-ISOBUTYL-AMINO]-5-PHENYL-THIOPHENE-2-CARBOXYLIC ACID] | < 5
CN(C(=O)c1cccs1)c1cc(-c2ccccc2)sc1C(=O)O [Compound 75, 3-(METHYL-(THIOPHENE-2-CARBONYL)-AMINO]-5-PHENYL-THIOPHENE-2-CARBOXYLIC ACID] | 5 to 20
Cc1ccc(C(=O)N(Cc2ccc(F)cc2F)c2cc(-c3ccccc3)sc2C(=O)O)cc1 [Compound 336, 3-[(2,4-DIFLUORO-BENZYL)-(4-METHYL- BENZOYL)-AMINO]-5-PHENYL- THIOPHENE-2-CARBOXYLIC ACID] | < 5
Cc1ccccc1S(=O)(=O)Nc1cc(-c2cccs2)sc1C(=O)O [Compound 56, 4-(TOLUENE-2-SULFONYLAMINO)-[2,2′]BITHIOPHENYL-5-CARBOXYLIC ACID] | < 5
Cc1ccccc1S(=O)(=O)Nc1cc(-c2ccc(F)c(Cl)c2)sc1C(=O)O [Compound 91, 5-(3-CHLORO-4-FLUORO-PHENYL)-3-(TOLUENE-2-SULFONYLAMINO)-THIOPHENE-2-CARBOXYLIC ACID] | 5 to 20
N#Cc1ccccc1-c1ccc(CN(C(=O)c2ccc(Cl)cc2Cl)c2cc(-c3ccccc3)sc2C(=O)O)s1 [Compound 132, 3-[[(5-(2-CYANO-PHENYL)-THIOPHEN-2-YLMETHYL]-(2,4-DICHLORO-BENZOYL)-AMINO]-5-PHENYL-THIOPHENE-2-CARBOXYLIC ACID] | < 5
Cc1cc(Cl)ccc1S(=O)(=O)Nc1cc(-c2ccccc2)sc1C(=O)O [Compound 372, 3-(4-CHLORO-2-METHYL- BENZENESULFONYLAMINO)-5-PHENYL- THIOPHENE-2-CARBOXYLIC ACID] | < 5
Nc1ccccc1S(=O)(=O)Nc1cc(-c2ccccc2)sc1C(=O)O [Compound 146, 3-(2-AMINO-BENZENESULFONYLAMINO)-5-PHENYL-THIOPHENE-2-CARBOXYLIC ACID] | < 5
Cc1ccccc1S(=O)(=O)Nc1cc(-c2ccc(S(C)(=O)=O)cc2)sc1C(=O)O [Compound 89, 5-(4-METHANESULFONYL-PHENYL)-3-(TOLUENE-2-SULFONYLAMINO)-THIOPHENE-2-CARBOXYLIC ACID] | < 5
O=C(O)c1sc(-c2ccc([N+](=O)[O-])cc2)cc1NS(=O)(=O)c1ccccn1 [Compound 129, 5-(4-NITRO-PHENYL)-3-(PYRIDINE-2-SULFONYLAMINO)-THIOPHENE-2-CARBOXYLIC ACID] | 5 to 20
Cc1ccccc1S(=O)(=O)Nc1cc(-c2ccccc2C(=O)O)sc1C(=O)O [Compound 115, 5-(2-CARBOXY-PHENYL)-3-(TOLUENE-2-SULFONYLAMINO)-THIOPHENE-2-CARBOXYLIC ACID] | 5 to 20
CC(C)(C)c1cc(NS(=O)(=O)c2ccc(Cl)cc2)c(C(=O)O)s1 [Compound 10, 5-TERT-BUTYL-3-(4-CHLORO-BENZENESULFONYLAMINO)-THIOPHENE-2-CARBOXYLIC ACID] | < 5
CCN(C(=O)c1ccc(C)cc1)c1cc(-c2ccccc2)sc1C(=O)O [Compound 185, 3-[ETHYL-(4-METHYL-BENZOYL)-AMINO]-5-PHENYL-THIOPHENE-2-CARBOXYLIC ACID] | < 5
CN(C(=O)c1ccccc1Br)c1cc(-c2ccccc2)sc1C(=O)O [Compound 187, 3-[(2-BROMO-BENZOYL)-METHYL-AMINO]-5-PHENYL-THIOPHENE-2-CARBOXYLIC ACID] | 5 to 20
